Results reported in patent publication US7989445B2, “Thienopyrimidone compound” (Takeda Pharmaceutical Company Limited, priority 2005, dated 2011).
Where a name gives a salt, the structure may show the parent alone.

SMILES | melting point [°C]
CC(=O)NC1CCN(Cc2ccc(CCn3cnc4cc(-c5ccc(Cl)cc5)sc4c3=O)cc2)C1 (centres unmarked) [Example 36, N-[1-(4-{2-[6-(4-chlorophenyl)-4-oxothieno[3,2-d]pyrimidin-3(4H)-yl]ethyl}benzyl)pyrrolidin-3-yl]acetamide] | 196 to 198
CNC1Cc2ccc(C(=O)Cn3cnc4cc(-c5ccc(Cl)cc5)sc4c3=O)cc2C1 (centres unmarked) [Example 16, 6-(4-chlorophenyl)-3-{2-[2-(methylamino)-2,3-dihydro-1H-inden-5-yl]-2-oxoethyl}thieno[3,2-d]pyrimidin-4(3H)-one] | 226 to 229
O=C1C[C@@H](O)CN1Cc1ccc(CCn2cnc3cc(-c4ccc(Cl)cc4)sc3c2=O)cc1 [Example 33, 6-(4-chlorophenyl)-3-[2-(4-{[(4R)-4-hydroxy-2-oxopyrrolidin-1-yl]methyl}phenyl)ethyl]thieno[3,2-d]pyrimidin-4(3H)-one] | 243 to 246
CC(=O)N(C)Cc1ccc(C(=O)Cn2cnc3cc(-c4ccc(Cl)cc4)sc3c2=O)cc1 [Example 14, N-(4-{[6-(4-chlorophenyl)-4-oxothieno[3,2-d]pyrimidin-3(4H) -yl]acetyl}benzyl)-N-methylacetamide] | 250 to 251
CN(Cc1ccc(CCn2cnc3cc(-c4ccc(Cl)cc4)sc3c2=O)cc1)S(C)(=O)=O [Example 24, N-(4-{2-[6-(4-chlorophenyl)-4-oxothieno[3,2-d]pyrimidin-3(4H) -yl]ethyl}benzyl)-N-methylmethanesulfonamide] | 230 to 232
CCN1CCN(Cc2ccc(CCn3cnc4cc(-c5ccc(Cl)cc5)sc4c3=O)cc2)C(=O)C1=O [Example 34, 1-(4-{2-[6-(4-chlorophenyl)-4-oxothieno[3,2-d]pyrimidin-3(4H) -yl]ethyl}benzyl)-4-ethylpiperazine-2,3-dione] | 285 to 288
CC(C)(C)OC(=O)N1CCN(Cc2ccc(CCn3cnc4cc(-c5ccc(Cl)cc5)sc4c3=O)cc2)C(=O)C1 [Example 37, tert-butyl 4-(4-{2-[6-(4-chlorophenyl)-4-oxothieno[3,2-d]pyrimidin-3(4H)-yl]ethyl}benzyl)-3-oxopiperazine-1-carboxylate] | 165 to 170
CN(Cc1ccc(CCn2cnc3cc(-c4ccc(Cl)cc4)sc3c2=O)cc1)C(=O)C1CC1 [Example 7, N-(4-{2-[6-(4-chlorophenyl)-4-oxothieno[3,2-d]pyrimidin-3(4H) -yl]ethyl}benzyl)-N-methylcyclopropanecarboxamide] | 178
CN(CC(=O)O)Cc1ccc(CCn2cnc3cc(-c4ccc(Cl)cc4)sc3c2=O)cc1 (as salt: hydrochloride) [Example 30, N-(4-{2-[6-(4-chlorophenyl)-4-oxothieno[3,2-d]pyrimidin-3(4H) -yl]ethyl}benzyl)-N-methylglycine dihydrochloride] | 252 to 253
CN(Cc1ccc(CCn2cnc3cc(-c4ccc(Cl)cc4)sc3c2=O)cc1)C(=O)OC(C)(C)C [Example 3, tert-butyl N-(4-{2-[6-(4-chlorophenyl)-4-oxothieno[3,2-d]pyrimidin-3(4H)-yl]ethyl}benzyl)-N-methylcarbamate] | 206 to 209
CNCc1ccc(CCn2cnc3cc(-c4ccc(Cl)cc4)sc3c2=O)cc1 (as salt: hydrochloride) [Example 4, 6-(4-chlorophenyl)-3-(2-{4-[(methylamino)methyl]phenyl}ethyl)thieno[3,2-d]pyrimidin-4(3H)-one dihydrochloride] | > 300
CN(C(=O)C(F)(F)F)C1Cc2ccc(C(=O)Cn3cnc4cc(-c5ccc(Cl)cc5)sc4c3=O)cc2C1 (centres unmarked) [Example 15, N-(5-{[6-(4-chlorophenyl)-4-oxothieno[3,2-d]pyrimidin-3(4H) -yl]acetyl}-2,3-dihydro-1H-inden-2-yl)-2,2,2-trifluoro-N -methylacetamide] | 245 to 248
CN(CC(=O)OC(C)(C)C)Cc1ccc(CCn2cnc3cc(-c4ccc(Cl)cc4)sc3c2=O)cc1 [Example 29, N-(4-{2-[6-(4-chlorophenyl)-4-oxothieno[3,2-d]pyrimidin-3(4H) -yl]ethyl}benzyl)-N-methylglycine tert-butyl ester] | 130
CNC(=O)CN(C)Cc1ccc(CCn2cnc3cc(-c4ccc(Cl)cc4)sc3c2=O)cc1 [Example 31, N^2-(4-{2-[6-(4-chlorophenyl)-4-oxothieno[3,2-d]pyrimidin-3(4H) -yl]ethyl}benzyl)-N,N^2-dimethylglycinamide] | 146 to 149

Now from value to compound:

melting point [°C] | SMILES
199 to 201 | O=C1CCCCN1Cc1ccc(CCn2cnc3cc(-c4ccc(Cl)cc4)sc3c2=O)cc1 [Example 25, 6-(4-chlorophenyl)-3-(2-{4-[(2-oxopiperidin-1-yl)methyl]phenyl}ethyl)thieno[3,2-d]pyrimidin-4(3H)-one]
193 to 194 | CC(=O)N(C)N(C(=O)OC(C)(C)C)c1ccc(CCn2cnc3cc(-c4ccc(Cl)cc4)sc3c2=O)cc1 [Example 20]
204 to 207 | CC(=O)N1CCN(Cc2ccc(CCn3cnc4cc(-c5ccc(Cl)cc5)sc4c3=O)cc2)C(=O)C1 [Example 39, 3-(2-{4-[(4-acetyl-2-oxopiperazin-1-yl)methyl]phenyl}ethyl)-6-(4-chlorophenyl)thieno[3,2-d]pyrimidin-4(3H)-one]
232 to 234 | O=C1CN(Cc2ccc(CCn3cnc4cc(-c5ccc(Cl)cc5)sc4c3=O)cc2)CCN1 [Example 35, 6-(4-chlorophenyl)-3-(2-{4-[(3-oxopiperazin-1-yl)methyl]phenyl}ethyl)thieno[3,2-d]pyrimidin-4(3H)-one]
160 to 163 | CC(c1ccc(CCn2cnc3cc(-c4ccc(Cl)cc4)sc3c2=O)cc1)N1CC[C@H](F)C1 (stereo partly drawn) [Example 19, 6-(4-chlorophenyl)-3-[2-[4-[1-[(3S)-3-fluoropyrrolidin-1-yl]ethyl]phenyl]ethyl]thieno[3,2-d]pyrimidin-4(3H)-one]
166 to 169 | CNCC(=O)N(C)Cc1ccc(CCn2cnc3cc(-c4ccc(Cl)cc4)sc3c2=O)cc1 [Example 28, N-(4-{2-[6-(4-chlorophenyl)-4-oxothieno[3,2-d]pyrimidin-3(4H) -yl]ethyl}benzyl)-N,N^2-dimethylglycinamide]
160 to 165 | CN(C)C(=O)N(C)Cc1ccc(CCn2cnc3cc(-c4ccc(Cl)cc4)sc3c2=O)cc1 [Example 8, N-(4-{2-[6-(4-chlorophenyl)-4-oxothieno[3,2-d]pyrimidin-3(4H) -yl]ethyl}benzyl)-N,N′,N′-trimethylurea]
181 | CN(Cc1ccc(CCn2cnc3cc(-c4ccc(Cl)cc4)sc3c2=O)cc1)C(=O)CC(C)(C)C [Example 5, N-(4-{2-[6-(4-chlorophenyl)-4-oxothieno[3,2-d]pyrimidin-3(4H)-yl]ethyl}benzyl)-N,3,3-trimethylbutanamide]
271 to 278 | O=C1CNCCN1Cc1ccc(CCn2cnc3cc(-c4ccc(Cl)cc4)sc3c2=O)cc1 (as salt: hydrochloride) [Example 38, 6-(4-chlorophenyl)-3-(2-{4-[(2-oxopiperazin-1-yl)methyl]phenyl}ethyl)thieno[3,2-d]pyrimidin-4(3H)-one dihydrochloride]
216 to 217 | O=C1CCCCN1Cc1ccc(CCn2cnc3cc(-c4ccc(F)cc4)sc3c2=O)cc1 [Example 26, 6-(4-fluorophenyl)-3-(2-{4-[(2-oxopiperidin-1-yl)methyl]phenyl}ethyl)thieno[3,2-d]pyrimidin-4(3H)-one]
235 to 238 | CN(Cc1ccc(C(=O)Cn2cnc3cc(-c4ccc(Cl)cc4)sc3c2=O)cc1)C(=O)C(F)(F)F [Example 12, N-(4-{[6-(4-chlorophenyl)-4-oxothieno[3,2-d]pyrimidin-3(4H) -yl]acetyl}benzyl)-2,2,2-trifluoro-N-methylacetamide]
285 to 287 | O=C(Cn1cnc2cc(-c3ccc(Cl)cc3)sc2c1=O)c1ccc2c(c1)CCN(C(=O)C(F)(F)F)CC2 [Example 10, 6-(4-chlorophenyl)-3-{2-oxo-2-[3-(trifluoroacetyl) -2,3,4,5-tetrahydro-1H-3-benzazepin-7-yl]ethyl}thieno[3,2-d]pyrimidin-4(3H)-one]
